± gives the expanded uncertainty stated by the source.
Settings: Crystal; DTA

| Structure (SMILES) | Normal melting temperature [°C] |
| --- | --- |
| [Cl-].[Cs+] [cesium chloride] | 645 ± 1 |
| [F-].[Li+] [lithium fluoride] | 844 ± 1 |

Reference: the NIST ThermoML archive (doi:10.1016/j.jct.2019.07.003)
